Common to all, as to assay type: functional
Test [1] concerns Rattus norvegicus. Briefly: Weight loss of rat over the 6-h experimental period when a dose of 5 mg/kg (11.6 administered.
In test [2] the test system is Rattus norvegicus. Briefly: Weight loss of rat over the 6-h experimental period when a dose of 0 mg/kg (0 administered.
The test system of test [3] is Rattus norvegicus. Briefly: Percent reduction was determined by using the ratio of mean of treated animal to that of control animal at a dose of 1 mg/kg.
The test system of test [4] is Rattus norvegicus. Briefly: Percent reduction was determined by using the ratio of mean of treated animal to that of control animal at a dose of 5 mg/kg.
The subject of test [5] is Rattus norvegicus. Briefly: Weight loss of rat over the 6-h experimental period when a dose of 25 mg/kg (57.8 administered.
In test [6] the test system is Rattus norvegicus. Briefly: Stool output of rat over the 6-h collection period when a dose of 0 mg/kg (0 administered.
Test [7] relates to Rattus norvegicus. Briefly: Stool output of rat over the 6-h collection period when a dose of 25 mg/kg (57.8 administered.
The test system of test [8] is Rattus norvegicus. Briefly: Stool output of rat over the 6-h collection period when a dose of 5 mg/kg (11.6 administered.
Test [9] deals with Rattus norvegicus. Briefly: Weight loss of rat over the 6-h experimental period when a dose of 1 mg/kg (2.3 uMl) was administered.
Test [10] concerns Rattus norvegicus. Briefly: Stool output of rat over the 6-h collection period when a dose of 1 mg/kg (2.3 administered.
Test [11] has as its system Rattus norvegicus. Briefly: Percent reduction was determined by using the ratio of mean of treated animal to that of control animal at a dose of 25 mg/kg.
Test [12] relates to Rattus norvegicus. Briefly: Stool output of rat over the 6-h collection period when a dose of 23.5 mg/kg (58.13 uM) was given orally. The settings on record: route oral.
Test [13] deals with Rattus norvegicus. Briefly: Weight loss of rat over the 6-h experimental period when a dose of 94 mg/kg (232.5 uM) was given orally. Conditions: route oral.
Test [14] deals with Rattus norvegicus. Briefly: Weight loss of rat over the 6-h experimental period when a dose of 47 mg/kg (116.25 uM) was given orally. Conditions: route oral.
The test system of test [15] is Rattus norvegicus. Briefly: Weight loss of rat over the 6-h experimental period when a dose of 5.9 mg/kg (11.6 administered.
Test [16] relates to Rattus norvegicus. Briefly: Weight loss of rat over the 6-h experimental period when a dose of 23.5 mg/kg (58.13 uM) was given orally. Conditions: route oral.
Test [17] relates to Rattus norvegicus. Briefly: Stool output of rat over the 6-h collection period when a dose of 5.9 mg/kg (11.6 administered.
In test [18] the test system is Rattus norvegicus. Briefly: Weight loss of rat over the 6-h experimental period when a dose of 0 mg/kg (0 uM) was given orally. Conditions: route oral.
Test [19] relates to Rattus norvegicus. Briefly: Stool output of rat over the 6-h collection period when a dose of 47 mg/kg (116.25 uM) was given orally. The settings on record: route oral.
Test [20] deals with Rattus norvegicus. Briefly: Stool output of rat over the 6-h collection period when a dose of 0 mg/kg (0 uM) was given orally. The settings on record: route oral.
Test [21] relates to Rattus norvegicus. Briefly: Stool output of rat over the 6-h collection period when a dose of 94 mg/kg (232.5 uM) was given orally. Conditions: route oral.
Test [22] concerns Rattus norvegicus. Briefly: Weight loss of rat over the 6-h experimental period when a dose of 15 mg/kg (47.6 administered.
For test [23], the system named is Rattus norvegicus. Briefly: Stool output of rat over the 6-h collection period when a dose of 15 mg/kg (47.6 administered.
The subject of test [24] is Rattus norvegicus. Briefly: Stool output of rat over the 6-h collection period when a dose of 4.6 mg/kg (11.6 administered.
The test system of test [25] is Rattus norvegicus. Briefly: Weight loss of rat over the 6-h experimental period when a dose of 4.6 mg/kg (11.6 administered.
Test [26] relates to Rattus norvegicus. Briefly: Stool output of rat over the 6-h collection period when a dose of 5.3 mg/kg (11.6 administered.
In test [27] the test system is Rattus norvegicus. Briefly: Weight loss of rat over the 6-h experimental period when a dose of 10.7 mg/kg (23.2 administered.
Test [28] relates to Rattus norvegicus. Briefly: Stool output of rat over the 6-h collection period when a dose of 10.7 mg/kg (23.2 administered.
Test [29] deals with Rattus norvegicus. Briefly: Percent reduction was determined by using the ratio of mean of treated animal to that of control animal at a dose of 5.3 mg/kg.
Test [30] relates to Rattus norvegicus. Briefly: Percent reduction was determined by using the ratio of mean of treated animal to that of control animal at a dose of 10.7 mg/kg.
For test [31], the system named is Rattus norvegicus. Briefly: Weight loss of rat over the 6-h experimental period when a dose of 5.3 mg/kg (11.6 administered.
Test [32] concerns Rattus norvegicus. Briefly: Stool output of rat over the 6-h collection period when a dose of 6.11 mg/kg (11.6 administered.
Test [33] relates to Rattus norvegicus. Briefly: Weight loss of rat over the 6-h experimental period when a dose of 1.22 mg/kg (2.3 administered.
The test system of test [34] is Rattus norvegicus. Briefly: Weight loss of rat over the 6-h experimental period when a dose of 6.11 mg/kg (11.6 administered.
The subject of test [35] is Rattus norvegicus. Briefly: Stool output of rat over the 6-h collection period when a dose of 1.22 mg/kg (2.3 administered.
The subject of test [36] is Rattus norvegicus. Briefly: Stool output of rat over the 6-h collection period when a dose of 30.4 mg/kg (57.8 administered.
Test [37] has as its system Rattus norvegicus. Briefly: Weight loss of rat over the 6-h experimental period when a dose of 30.4 mg/kg (57.8 administered.
In test [38] the test system is Rattus norvegicus. Briefly: Weight loss of rat over the 6-h experimental period when a dose of 50 mg/kg (115.6 uM) was given orally. The settings on record: route oral.
The test system of test [39] is Rattus norvegicus. Briefly: Weight loss of rat over the 6-h experimental period when a dose of 12.5 mg/kg (28.9 uM) was given orally. The settings on record: route oral.
The subject of test [40] is Rattus norvegicus. Briefly: Weight loss of rat over the 6-h experimental period when a dose of 25 mg/kg (57.6 uM) was given orally. The settings on record: route oral.
Test [41] deals with Rattus norvegicus. Briefly: Percent reduction was determined by using the ratio of mean of treated animal to that of control animal at a dose of 2.5 mg/kg.
Test [42] concerns Rattus norvegicus. Briefly: Percent reduction was determined by using the ratio of mean of treated animal to that of control animal at a dose of 50 mg/kg.
Test [43] deals with Rattus norvegicus. Briefly: Weight loss of rat over the 6-h experimental period when a dose of 2.5 mg/kg (5.8 administered.
Test [44] concerns Rattus norvegicus. Briefly: Stool output of rat over the 6-h collection period when a dose of 50 mg/kg (115.6 uM) was given orally. Conditions: route oral.
Test [45] concerns Rattus norvegicus. Briefly: Percent reduction was determined by using the ratio of mean of treated animal to that of control animal at a dose of 12.5 mg/kg.
The test system of test [46] is Rattus norvegicus. Briefly: Stool output of rat over the 6-h collection period when a dose of 12.5 mg/kg (28.9 uM) was given orally. The settings on record: route oral.
Test [47] can be described thus: The acute toxicity was determined in female CD1 mice after (ip) administration. The settings on record: Mus musculus.
Test [48] has as its system Rattus norvegicus. Briefly: Weight loss of rat over the 6-h experimental period when a dose of 1 mg/kg (2.3 administered.
Test [49] relates to Rattus norvegicus. Briefly: Stool output of rat over the 6-h collection period when a dose of 2.5 mg/kg (5.8 administered.
Test [50] has as its system Rattus norvegicus. Briefly: Stool output of rat over the 6-h collection period when a dose of 25 mg/kg (57.6 uM) was given orally. The settings on record: route oral.
The test system of test [51] is Rattus norvegicus. Briefly: Weight loss of rat over the 6-h experimental period when a dose of 1.1 mg/kg (2.3 administered.
Test [52] concerns Rattus norvegicus. Briefly: Stool output of rat over the 6-h collection period when a dose of 2.7 mg/kg (5.8 administered.
The test system of test [53] is Rattus norvegicus. Briefly: Weight loss of rat over the 6-h experimental period when a dose of 2.7 mg/kg (5.8 administered.
Test [54] concerns Rattus norvegicus. Briefly: Stool output of rat over the 6-h collection period when a dose of 1.1 mg/kg (2.3 administered.

“And” between values parts separate entries of the source, which are not always exact repeats. Identical values can stand only once.

Regarding `CCCNCCCNCCCCNCCCNCCC`, the Weight loss in the test with Rattus norvegicus [1] is given as below 5.7 g; in the test with Rattus norvegicus [2], 13.1 g; in the test on Rattus norvegicus [5], below 4 g; in the test with Rattus norvegicus [9], below 9.1 g. For the same compound, the Reduction in the test with Rattus norvegicus [3] was 31% and 37%; with Rattus norvegicus [4], 56% and 55%; in the test on Rattus norvegicus [11] it was 69% and 100%. Besides, the Stool output in the test with Rattus norvegicus [6] is recorded as 6 g (350g of rat weight)-1; with Rattus norvegicus [7], <0 g (350g of rat weight)-1; in the test on Rattus norvegicus [8], <2.7 g (350g of rat weight)-1; in the test with Rattus norvegicus [10], >3.8 g (350g of rat weight)-1.
Turning to `FC(F)(F)CNCCCNCCCCNCCCNCC(F)(F)F`, the Weight loss in the test with Rattus norvegicus [2] was 18.2 g; with Rattus norvegicus [13], below 2.8 g; with Rattus norvegicus [14] it was below 3.8 g; in the test with Rattus norvegicus [15], above 17.2 g; with Rattus norvegicus [16], below 6.2 g; in the test on Rattus norvegicus [18], 15.1 g. Also, the Stool output is reported as <1.9 g (350g of rat weight)-1 with Rattus norvegicus [12]; 7.2 g (350g of rat weight)-1 with Rattus norvegicus [6]; >7.5 g (350g of rat weight)-1 with Rattus norvegicus [17]; <0.6 g (350g of rat weight)-1 with Rattus norvegicus [19]; 7.2 g (350g of rat weight)-1 in the test on Rattus norvegicus [20]; <0 g (350g of rat weight)-1 in the test on Rattus norvegicus [21].
Turning to `c1cc(NCCCCNc2ccncc2)ccn1`, the Weight loss in the test with Rattus norvegicus [2] is reported as 13.3 g; with Rattus norvegicus [22] it was above 14.4 g. Further, the Stool output is given as 5.6 g (350g of rat weight)-1 with Rattus norvegicus [6] and >6.9 g (350g of rat weight)-1 in the test with Rattus norvegicus [23].
With `C(CCNC1CCNCC1)CNC1CCNCC1`, the results for the Weight loss with Rattus norvegicus [2] and in the test on Rattus norvegicus [25] were 10 g and above 9.5 g, respectively. For the same compound, the figures for the Stool output in the test on Rattus norvegicus [6] and with Rattus norvegicus [24] were 4.2 g (350g of rat weight)-1 and >4.7 g (350g of rat weight)-1, respectively.
Take `CC(C)CNCCCNCCCCNCCCNCC(C)C`: the values for the Stool output with Rattus norvegicus [26], with Rattus norvegicus [28] and in the test on Rattus norvegicus [6] were >5.1 g (350g of rat weight)-1, >1.6 g (350g of rat weight)-1 and 7.2 g (350g of rat weight)-1, respectively. The Weight loss in the test on Rattus norvegicus [27] is below 5 g; with Rattus norvegicus [2], 18.2 g; in the test on Rattus norvegicus [31] it was below 11.1 g. The Reduction with Rattus norvegicus [29] came to 39%; in the test with Rattus norvegicus [30], 78%.
On to `c1ccc(CNCCCNCCCCNCCCNCc2ccccc2)cc1`, for which the Weight loss in the test with Rattus norvegicus [2] was 13.3 g; in the test with Rattus norvegicus [33], above 13.5 g; with Rattus norvegicus [34], above 13.1 g; in the test with Rattus norvegicus [37], above 10.4 g. Also, the Stool output in the test on Rattus norvegicus [32] is recorded as >6.3 g (350g of rat weight)-1; with Rattus norvegicus [6] it was 6.2 g (350g of rat weight)-1; in the test on Rattus norvegicus [35] it was >6.4 g (350g of rat weight)-1; in the test with Rattus norvegicus [36], >5 g (350g of rat weight)-1.
The term LD50 denotes the dose expected to kill half of the subjects tested. Low values mean a more toxic substance, high ones a less toxic substance. Consider `CC(C)NCCCNCCCCNCCCNC(C)C`, for which the Weight loss in the test with Rattus norvegicus [1] is given as below 4.4 g; in the test with Rattus norvegicus [38] it was below 3.2 g; with Rattus norvegicus [2], 11.8 g; in the test on Rattus norvegicus [39], below 8.7 g; in the test with Rattus norvegicus [40], below 3.6 g; in the test on Rattus norvegicus [43], below 4.2 g. Moreover, the Weight loss in the test on Rattus norvegicus [48] is on record as below 6.9 g; with Rattus norvegicus [18], 17.2 g. Besides, the Reduction in the test with Rattus norvegicus [3] was 42% and 57%; in the test on Rattus norvegicus [4], 63% and 87%; with Rattus norvegicus [41], 64% and 100%; with Rattus norvegicus [42], 81% and 100%; in the test with Rattus norvegicus [45], 49% and 50%; in the test with Rattus norvegicus [11] it was 79% and 100%. Further, the Stool output with Rattus norvegicus [6] is on record as 6.8 g (350g of rat weight)-1; in the test on Rattus norvegicus [8] it was <0.9 g (350g of rat weight)-1; with Rattus norvegicus [44], <0 g (350g of rat weight)-1; in the test with Rattus norvegicus [46], <3.6 g (350g of rat weight)-1; with Rattus norvegicus [10] it was <2.9 g (350g of rat weight)-1; with Rattus norvegicus [49], <0 g (350g of rat weight)-1. The Stool output in the test on Rattus norvegicus [20] was 7.2 g (350g of rat weight)-1; in the test on Rattus norvegicus [50] it was <0 g (350g of rat weight)-1. Besides, the LD50 in test [47] worked out at 125 mg/kg.
Consider `CCCCNCCCNCCCCNCCCNCCCC`, for which the Stool output was >5.5 g (350g of rat weight)-1 with Rattus norvegicus [26], 4.6 g (350g of rat weight)-1 in the test with Rattus norvegicus [6], >4.2 g (350g of rat weight)-1 in the test on Rattus norvegicus [52] and >3.5 g (350g of rat weight)-1 in the test on Rattus norvegicus [54]. In addition, the Weight loss in the test with Rattus norvegicus [51] is recorded as above 10.2 g; in the test with Rattus norvegicus [2], 13.6 g; in the test with Rattus norvegicus [53] it was above 11.2 g; in the test on Rattus norvegicus [31], above 12 g.

For the origin of these results see ChEMBL document CHEMBL1134446, “Polyamine analogue antidiarrheals: a structure-activity study” (J Med Chem, 2001).
